Patent US8901314B2, “Substituted pyrazoles as N-type calcium channel blockers” (Janssen Pharmaceutica NV, priority 2012, dated 2014)

How the values were obtained:
[1] = tested on: Cav2.2 (N-type calcium channel; α1B, α2δ and β3 subunits stably expressed in HEK293 cells); experiment: Automated electrophysiology assay (QPatch-HT patch clamp); format: cell-based; conditions: 0.1 μM; for QPatch % Inhibition, High Freq: high frequency stimulation (15th pulse of 5 Hz train); for QPatch % Inhibition, Low Freq: low frequency stimulation (1st pulse of train)
Experimental: The Cav2.2 (α1B) subunit (GenBank accession no. AAO53230; supplied by Lipscombe's laboratory at Brown University) was subcloned into pcDNA3.1, whereas the α2δ (M86621) and β3 (M88751) subunits were subcloned into pBudCE4.1 vectors. Stable cell lines expressing all three subunits were generated according to the following procedure: 1) HEK293 cells were transfected with α2δ−1/β3 expression constructs resulting in a stable cell line expressing α2δ−1 and β3 subunits that were selected under 200 μg/mL of Zeocin; 2) a stable cell line expressing α2δ−1/β3 subunits in high quantity as evidenced in its Western blots was isolated from the colony and purified; 3) this cell line was further transfected with Cav2.2 expression constructs, from which cells were subsequently selected under 400 μg/mL G418 and 200 μg/mL Zeocin; 4) these cells were clonally isolated, expanded and screened by Western blot analysis for expressing all three subunits
Cultures of cells stably expressing Cav2.2 were maintained at 37° C. in low glucose-containing Dulbecco's Modified Eagle medium (low glucose) under a 5% CO2 atmosphere. The medium was supplemented with 10% fetal bovine serum, 2 mM L-glutamine, 100 IU/mL penicillin, […] streptomycin, 400 μg/mL G418 and 200 μg/mL Zeocin.
High-throughput automated patch clamp system experiments were carried out using instruments (QPatch-HT) available from Sophion Biosciences, Inc. North Brunswick, N.J. Cells were grown in T175 flasks to 50%-90% confluence were enzymatically treated with Deatchin (Genlantis, San Diego, Calif., U.S.A.), centrifuged, rinsed and resuspended in 293 SFM II media (Life Technologies, Grand Island, N.Y., U.S.A.) supplemented with 25 mM HEPES (Sigma-Aldrich, St. Louis, Mo., U.S.A.) to a concentration of 2−3×10^6 cells/mL. Cells were added to automated cell preparation station on the QPatch-HT (Sophion Biosciences, North Brunswick, N.J., U.S.A.) and following a 10- to 30-min recovery period with gentle stirring, the assay protocol was initiated. During the automated cell preparation, cells were collected, centrifuged and resuspended in an extracellular (EC) solution containing 132 mM NaCl, 1.8 mM CaCl2, 5.4 mM KCl, 0.8 mM MgCl2, 10 mM glucose, and 10 mM HEPES (pH=7.4), adjusted with sucrose to 315 m0sm. The QPlate was primed with an intracellular solution containing 135 CsCl, 10 mM EGTA, 4 MgATP, 0.3 NaGTP, and 20 mM HEPES (pH=7.2), adjusted to approximately 290 m0sm with deionized water and the EC solution. Cells were added to the prepared QPlate wells by robotic pipettes of the QPatch-HT.
For cells determined to be in stable whole-cell patch clamp, the EC solution was replaced with a barium (Ba)/triethylammonium (TEA) solution containing 140 mM TEA-Cl, 10 mM BaCl2, 0.8 mM MgCl2, 10 mM glucose, and 10 mM HEPES (pH=7.4). High (40 mM) BaCl2 concentrations were made with adjustments of TEA-Cl (90 mM) to maintain the osmolarity. From a resting potential of −80 mV, a train of depolarizing pulses (15 pulses at 5 Hz, +20 mV) was delivered to the cell once every 30 sec for eight trains (4 min total), and the resulting currents were measured during a control period (no compound). This protocol was repeated for each subsequent addition of control buffer with or without compound (three periods total, each with four trains). The current generated in the 1st and 15th pulses of the last train of each period in the presence of each drug concentration was normalized to the current generated during the control period at the respective pulses (representing low- and high frequency stimulation, respectively). Data from both the second and third drug application period were analyzed for each cell. A final addition of Ba/TEA solution containing 60-100 uM CdCl2 was made to block all N-type current and “zero” the currents for each cell. A buffer/compound additions were made using a “spitting” feature of the QPatch-HT, which added three repretitions of 5 μL solution at the beginning of each recording period.

[2] = biological target: α1B (Cav2.2), β3 and α2δ subunits of the N-type calcium channel (stable HEK cell line) (Rattus norvegicus, UniProt Q02294); experiment: Calcium-dye indicator assay (FDSS, KCl depolarization); format: cell-based; conditions: calcium mobilization response to 50 mM KCl; six-point concentration-response
How it was run: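 HEK cells stably co-expressing α1B, β3 and α2δ subunits, loaded with calcium dye, exposed to compound for 5 min before 50 mM KCl depolarization, 3 min further read on FDSS. Maximal fluorescence normalized to KCl maximum and buffer minimum; IC50 by sigmoidal nonlinear regression.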

| IC50 [2] [nM] | Structure (SMILES) | QPatch % Inhibition, High Freq [1] [%] | QPatch % Inhibition, Low Freq [1] [%] |
| --- | --- | --- | --- |
| 6.2 | COc1ccccc1-n1nc(C2CC(C)(C)OC(C)(C)C2)cc1-c1ccc(Cl)s1 [Compound 14, 5-(5-Chlorothiophen-2-yl)-1-(2-methoxyphenyl)-3-(2,2,6,6-tetramethyltetrahydro-2H-pyran-4-yl)-1H-pyrazole] | 74.5 | 63 |
| 4.9 | COc1ccccc1-n1nc(C2CC(C)(C)OC(C)(C)C2)cc1-c1ccc(C(C)(C)C)cc1 [Compound 15, 5-(4-tert-Butylphenyl)-1-(2-methoxyphenyl)-3-(2,2,6,6-tetramethyltetrahydro-2H-pyran-4-yl)-1H-pyrazole] | 37 | 20 |
| 5.1 | COc1ccccc1-n1nc(C2CC(C)(C)OC(C)(C)C2)cc1-c1ccccc1 [Compound 16, 1-(2-Methoxyphenyl)-5-phenyl-3-(2,2,6,6-tetramethyltetrahydro-2H-pyran-4-yl)-1H-pyrazole] | 51 | 37 |
| 5.1 | CCOC(=O)c1ccc(-c2cc(C3CC(C)(C)OC(C)(C)C3)nn2-c2ccccc2OC)cc1 [Compound 17, Ethyl 4-[1-(2-methoxyphenyl)-3-(2,2,6,6-tetramethyltetrahydro-2H-pyran-4-yl)-1H-pyrazol-5-yl]benzoate] | 82 | 84 |
| 5.3 | COc1ccccc1-n1nc(C2CC(C)(C)OC(C)(C)C2)cc1-c1cc(C)cs1 [Compound 18, 1-(2-Methoxyphenyl)-5-(4-methylthiophen-2-yl)-3-(2,2,6,6-tetramethyltetrahydro-2H-pyran-4-yl)-1H-pyrazole] | 16 | −23 |
| 5.5 | COc1cccc(-c2cc(C3CC(C)(C)OC(C)(C)C3)nn2-c2ccccc2OC)c1 [Compound 20, 1-(2-Methoxyphenyl)-5-(3-methoxyphenyl)-3-(2,2,6,6-tetramethyltetrahydro-2H-pyran-4-yl)-1H-pyrazole] | 45 | 38 |
| 6 | COc1ccccc1-n1nc(C2CC(C)(C)OC(C)(C)C2)cc1-c1ccccc1N [Compound 22, 2-[1-(2-Methoxyphenyl)-3-(2,2,6,6-tetramethyltetrahydro-2H-pyran-4-yl)-1H-pyrazol-5-yl]-aniline] | 0 | 0 |
| 12 | COc1ccccc1-n1nc(C2CC(C)(C)OC(C)(C)C2)cc1-c1cccs1 [Compound 26, 1-(2-Methoxyphenyl)-3-(2,2,6,6-tetramethyltetrahydro-2H-pyran-4-yl)-5-thiophen-2-yl-1H-pyrazole] | 42 | 24 |
| 17 | COc1ccccc1-n1nc(C2CC(C)(C)OC(C)(C)C2)cc1-c1ccc(C)o1 [Compound 28, 1-(2-Methoxyphenyl)-5-(5-methylfuran-2-yl)-3-(2,2,6,6-tetramethyltetrahydro-2H-pyran-4-yl)-1H-pyrazole] | −5 | −18 |
| 3.5 | COc1ccccc1-n1nc(C2CC(C)(C)OC(C)(C)C2)cc1-c1ccc(N(C)C)nc1 [Compound 31, 5-[1-(2-Methoxyphenyl)-3-(2,2,6,6-tetramethyltetrahydro-2H-pyran-4-yl)-1H-pyrazol-5-yl]-N,N-dimethylpyridin-2-amine] | 1 | 4 |
| 19 | COc1ccccc1-n1nc(C2CC(C)(C)OC(C)(C)C2)cc1-c1ccc(C(C)O)cc1 (stereo not drawn) [Compound 44, 1-{4-[1-(2-Methoxyphenyl)-3-(2,2,6,6-tetramethyltetrahydro-2H-pyran-4-yl)-1H-pyrazol-5-yl]-phenyl}-ethanol] | 6 | 20 |
| 5.5 | CN(C)c1ccccc1-n1nc(C2CC(C)(C)OC(C)(C)C2)cc1-c1ccc(Cl)cc1 [Compound 49, 2-[5-(4-Chlorophenyl)-3-(2,2,6,6-tetramethyltetrahydro-2H-pyran-4-yl)-1H-pyrazol-1-yl]-N,N-dimethylaniline] | 47 | 33 |
| 7 | CNc1ccccc1-n1nc(C2CC(C)(C)OC(C)(C)C2)cc1-c1ccc(Cl)cc1 [Compound 60, 2-[5-(4-Chlorophenyl)-3-(2,2,6,6-tetramethyltetrahydro-2H-pyran-4-yl)-1H-pyrazol-1-yl]-N-methylaniline] | 48 | 31 |
| 7.8 | CC1(C)CC(c2cc(-c3ccc(Cl)cc3)n(-c3ccccc3[N+](=O)[O-])n2)CC(C)(C)O1 [Compound 65, 5-(4-Chlorophenyl)-1-(2-nitrophenyl)-3-(2,2,6,6-tetramethyltetrahydro-2H-pyran-4-yl)-1H-pyrazole] | 50 | 44 |
| 9.4 | CCNc1ccccc1-n1nc(C2CC(C)(C)OC(C)(C)C2)cc1-c1ccc(Cl)cc1 [Compound 66, 2-[5-(4-Chlorophenyl)-3-(2,2,6,6-tetramethyltetrahydro-2H-pyran-4-yl)-1H-pyrazol-1-yl]-N-ethylaniline] | 25 | 7 |

| Structure (SMILES) | IC50 [2] [nM] | QPatch % Inhibition, High Freq [1] [%] | QPatch % Inhibition, Low Freq [1] [%] |
| --- | --- | --- | --- |
| CCOc1ccc(-c2cc(C3CC(C)(C)OC(C)(C)C3)nn2-c2ccccc2OC)cn1 [Compound 19, 2-Ethoxy-5-[1-(2-methoxyphenyl)-3-(2,2,6,6-tetramethyltetrahydro-2H-pyran-4-yl)-1H-pyrazol-5-yl]-pyridine] | 5.4 | 21 | 10 |
| COc1ccccc1-n1nc(C2CC(C)(C)OC(C)(C)C2)cc1-c1ccc(C)nc1 [Compound 23, 5-[1-(2-Methoxyphenyl)-3-(2,2,6,6-tetramethyltetrahydro-2H-pyran-4-yl)-1H-pyrazol-5-yl]-2-methylpyridine] | 6.2 | −8 | −19 |
| COc1ccccc1-n1nc(C2CCOC(C)(C)C2)cc1-c1ccc(Cl)cc1 (stereo not drawn) [Compound 62, 5-(4-Chlorophenyl)-3-(2,2-dimethyltetrahydro-2H-pyran-4-yl)-1-(2-methoxyphenyl)-1H-pyrazole] | 2 | 67 | 45 |
| COc1ccccc1-n1nc([C@H]2C[C@@H](C)O[C@@H](C)C2)cc1-c1ccc(Cl)cc1 [Compound 63, 5-(4-Chlorophenyl)-3-[(2R,4r,6S)-2,6-dimethyltetrahydro-2H-pyran-4-yl]-1-(2-methoxyphenyl)-1H-pyrazole] | 2.5 | 74.5 | 60 |
